Assay [1] relates to Pfeiffer. Description: Methylated lysine of histone-H3 (H3K27Me3) detection by ELISA, Pfeiffer cells. As to conditions: Homo sapiens, 168 h, 7 days treatment, H3K27Me3 normalized to total histone-3, read-out: IC50 of cell methylation, Pfeiffer. The format is cell-based, human. Put shortly:
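Cells were treated 7 days with compound (4-fold dilutions, 20 uM-0.009 nM), then lysed hypotonically with NaCl adjusted to ~100 mM. Lysate-coated plates were probed by ELISA for H3K27Me3 and total H3 (TMB, A450). Methylation signal was normalised to total H3 before curve fitting.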
(In general: ELISA stands for enzyme-linked immunosorbent assay.)

For assay [2], the system named is WSU-DLCL2 cells. Description: Experiment on WSU-DLCL2 cell proliferation (Calcein-AM). The class given is cell-based. As to conditions: Homo sapiens.
Assay [3] relates to Pfeiffer cells. Description: Experiment on Pfeiffer cell proliferation (CellTiter-Glo). As to conditions: Homo sapiens. The class given is cell-based, human.

Where two headings read alike, the source gives them in different places.

With `CCN(c1cc(O[C@H]2C[C@H](N3C[C@@H](C)O[C@@H](C)C3)C2)cc(C(=O)NCc2c(C)cc(C)[nH]c2=O)c1C)C1CCC(F)(F)CC1` [Example 45, 3-((4,4-difluorocyclohexyl)(ethyl)amino)-N-((4,6-dimethyl-2-oxo-1,2-dihydropyridin-3-yl)methyl)-5-(trans-3-(cis-2,6-dimethylmorpholinyl)cyclobutoxy)-2-methylbenzamide], the IC50 was 50 to 500 nM in assay [1]; 91 nM in assay [2] (WSUDLCL2, 168 h, WSU-DLCL2, Day 7, read-out: IC50 WSU-DLCL2 proliferation Day 7); 18 nM in assay [2] (WSUDLCL2, 336 h, WSU-DLCL2, Day 14, read-out: IC50 WSU-DLCL2 proliferation Day 14); 69 nM in assay [3] (168 h, Day 7, read-out: IC50 Pfeiffer proliferation Day 7); 9.7 nM in assay [3] (336 h, Day 14, read-out: IC50 Pfeiffer proliferation Day 14).

These data come from patent US12390472B2 (SUZHOU SINOVENT PHARMACEUTICALS CO., LTD., priority 2018, dated 2025).
